# According to patent EP1763300B1 (priority 2004, dated 2006):
# Key:
# Format in all cases: physicochemical
# [1] = Solubility in distilled water; conditions: no polymer, read-out: Löslichkeit in destilliertem Wasser
# Description: Verschiedene schlecht wasserlösliche Substanzen wurden eingesetzt, um die Eignung der erfindungsgemäßen Polymere als Lösungsvermittler zu testen. Tabelle 1
# [2] = Solubilisation with polymer of Herstellungsbeispiel 1 by Verfahren 1 (solid solution), HPLC-UV; conditions: buffer with polymer, pH 6, 1440 min
# [3] = Solubilisation with polymer of Herstellungsbeispiel 2 by Verfahren 1 (solid solution), HPLC-UV; conditions: buffer with polymer, pH 6, 1440 min
# Experimental: 0,5 g eines Polymers und 0,1 g einer ausgewählten Substanz wurden in DMF (ca. 20 ml) gelöst. Das Gemisch wurde gerührt und DMF wurde vollständig evaporiert, so daß eine […] der organischen Moleküle in dem Polymer erhalten wurde. […] […] Nach der Filtration wurde die Lösung mittels HPLC analysiert (Detektor UV) und die Konzentration der Substanzen bestimmt.
SMILES,solubility [1],Löslichkeit in Gegenwart von Polymer [2],in Gegenwart von Polymer [3]
CCOC(=O)/C(Cl)=C/c1cc(N2C(=O)C3=C(CCCC3)C2=O)ccc1Cl [Cinidon-Ethyl],0.057 µg/mL,"0,5 mg/l",57 mg/L
CC1(C)CCC(Cc2ccc(Cl)cc2)C1(O)Cn1cncn1 (centres unmarked) [Metconazol],15 µg/mL,,
CN1C(C(=O)Nc2ccccn2)=C(O)c2ccccc2S1(=O)=O [Piroxicam],23 µg/mL,92 mg/L,167 mg/L
COC(=O)N(OC)c1ccccc1COc1ccn(-c2ccc(Cl)cc2)n1 [Pyraclostrobin],2.4 µg/mL,,
"CCCCC(CC)COC(=O)c1ccc(Nc2nc(Nc3ccc(C(=O)OCC(CC)CCCC)cc3)nc(Nc3ccc(C(=O)OCC(CC)CCCC)cc3)n2)cc1 (centres unmarked) [Uvinul T150®, Octyltriazon]",0.007 µg/mL,"2,3 mg/l",79 mg/L
